Test system: MV-4-11 cells
Experiment: Gene expression microarray analysis (Affymetrix PrimeView) and GSEA
Assay type: cell-based, human
Design: RFU PODN (11730768_x_at) / Fold change /veh PODN (11730768_x_at) / RFU LINC00158 (11744669_a_at) / Fold change /veh LINC00158 (11744669_a_at) / RFU DUSP10 (11751237_a_at) / Fold change /veh DUSP10 (11751237_a_at) / RFU ID3 (11757404_x_at) / Fold change /veh ID3 (11757404_x_at) / RFU PLEKHG5 (11737974_s_at) / Fold change /veh PLEKHG5 (11737974_s_at) / RFU LRRC4B (11730491_at) / Fold change /veh LRRC4B (11730491_at) / RFU GIMAP4 (11747438_a_at) / Fold change /veh GIMAP4 (11747438_a_at) / RFU KRT8 (11758183_x_at) / Fold change /veh KRT8 (11758183_x_at) / RFU CNN1 (11734310_a_at) / Fold change /veh CNN1 (11734310_a_at) / RFU VPS37D (11726825_at) / Fold change /veh VPS37D (11726825_at) / RFU C10orf10 (11716522_x_at) / Fold change /veh C10orf10 (11716522_x_at) / RFU KIR2DL2 /// KIR2DL4 /// KIR2DL5A /// KIR2DL5B /// KIR2DS1 /// KIR2DS2 /// KIR2DS3 /// KIR2DS4 /// KIR3DL3 /// KIR3DL3 /// KIR3DS1 (11738374_at) / Fold change /veh KIR2DL2 /// KIR2DL4 /// KIR2DL5A /// KIR2DL5B /// KIR2DS1 /// KIR2DS2 /// KIR2DS3 /// KIR2DS4 /// KIR3DL3 /// KIR3DL3 /// KIR3DS1 (11738374_at) / RFU C1QL1 (11718748_at) / Fold change /veh C1QL1 (11718748_at) / RFU TMPRSS4 (11747572_a_at) / Fold change /veh TMPRSS4 (11747572_a_at) / RFU HAMP (11756126_x_at) / Fold change /veh HAMP (11756126_x_at) / RFU RNFT2 (11725882_a_at) / Fold change /veh RNFT2 (11725882_a_at) / RFU NR4A2 (11747474_a_at) / Fold change /veh NR4A2 (11747474_a_at) / RFU ABCC12 (11746883_a_at) / Fold change /veh ABCC12 (11746883_a_at) / RFU TMEM136 (11760407_x_at) / Fold change /veh TMEM136 (11760407_x_at) / RFU CLDN22 /// WWC2 (11732394_at) / Fold change /veh CLDN22 /// WWC2 (11732394_at) / RFU HLA-DPB1 (11760878_x_at) / Fold change /veh HLA-DPB1 (11760878_x_at) / RFU SPINT1 (11716480_a_at) / Fold change /veh SPINT1 (11716480_a_at) / RFU GAP43 (11754022_s_at) / Fold change /veh GAP43 (11754022_s_at) / RFU A4GNT (11735810_at) / Fold change /veh A4GNT (11735810_at) / RFU PRB3 (11715151_x_at) / Fold change /veh PRB3 (11715151_x_at) / RFU TUBB4B (11761932_at) / Fold change /veh TUBB4B (11761932_at) / RFU CAPN14 (11732068_a_at) / Fold change /veh CAPN14 (11732068_a_at) / RFU TMCC2 (11721928_a_at) / Fold change /veh TMCC2 (11721928_a_at) / RFU IRGQ (11745062_a_at) / Fold change /veh IRGQ (11745062_a_at) / RFU FAM174B (11720279_a_at) / Fold change /veh FAM174B (11720279_a_at) / RFU TMPRSS4 (11748680_a_at) / Fold change /veh TMPRSS4 (11748680_a_at) / RFU FAM212B (11763350_a_at) / Fold change /veh FAM212B (11763350_a_at) / RFU PLEKHG5 (11743358_a_at) / Fold change /veh PLEKHG5 (11743358_a_at) / RFU ZSCAN30 (11745921_a_at) / Fold change /veh ZSCAN30 (11745921_a_at) / RFU CMKLR1 (11741424_a_at) / Fold change /veh CMKLR1 (11741424_a_at) / RFU LOC101060620 /// MAPK8IP1 (11723275_at) / Fold change /veh LOC101060620 /// MAPK8IP1 (11723275_at) / RFU SPTSSB (11747773_x_at) / Fold change /veh SPTSSB (11747773_x_at) / RFU PRSS12 (11739890_at) / Fold change /veh PRSS12 (11739890_at) / RFU BIN1 (11741810_x_at) / Fold change /veh BIN1 (11741810_x_at) / RFU WNT11 (11732464_a_at) / Fold change /veh WNT11 (11732464_a_at) / RFU C10orf10 (11716521_a_at) / Fold change /veh C10orf10 (11716521_a_at) / RFU C5orf56 (11738089_at) / Fold change /veh C5orf56 (11738089_at) / RFU CYB561 (11721691_x_at) / Fold change /veh CYB561 (11721691_x_at) / RFU ANKRD19P (11752326_a_at) / Fold change /veh ANKRD19P (11752326_a_at) / RFU OR2T12 /// OR2T33 /// OR2T8 (11738714_s_at) / Fold change /veh OR2T12 /// OR2T33 /// OR2T8 (11738714_s_at) / RFU VCAN (11748164_a_at) / Fold change /veh VCAN (11748164_a_at) / RFU JSRP1 (11732532_at) / Fold change /veh JSRP1 (11732532_at) / RFU KRTAP10-11 (11738290_x_at) / Fold change /veh KRTAP10-11 (11738290_x_at) / RFU MYO3A (11730013_a_at) / Fold change /veh MYO3A (11730013_a_at) / RFU EBF3 (11725865_a_at) / Fold change /veh EBF3 (11725865_a_at) / RFU CAMK2N1 (11719241_x_at) / Fold change /veh CAMK2N1 (11719241_x_at) / RFU C5orf56 (11738088_a_at) / Fold change /veh C5orf56 (11738088_a_at) / RFU OLFML3 (11715873_a_at) / Fold change /veh OLFML3 (11715873_a_at) / RFU LOC100653217 /// NTM (11731650_a_at) / Fold change /veh LOC100653217 /// NTM (11731650_a_at) / RFU MAPK11 (11762145_a_at) / Fold change /veh MAPK11 (11762145_a_at) / RFU FIZ1 (11724087_x_at) / Fold change /veh FIZ1 (11724087_x_at) / RFU OASL (11726364_x_at) / Fold change /veh OASL (11726364_x_at) / RFU SOX15 (11748057_x_at) / Fold change /veh SOX15 (11748057_x_at) / RFU CD79A (11719716_a_at) / Fold change /veh CD79A (11719716_a_at) / RFU HIST1H1D (11736915_at) / Fold change /veh HIST1H1D (11736915_at) / RFU CASKIN2 (11723855_a_at) / Fold change /veh CASKIN2 (11723855_a_at) / RFU LOC730098 (11760151_x_at) / Fold change /veh LOC730098 (11760151_x_at) / RFU OR4N2 (11742367_at) / Fold change /veh OR4N2 (11742367_at) / RFU PRRT2 (11749266_a_at) / Fold change /veh PRRT2 (11749266_a_at) / RFU SNX32 (11753110_a_at) / Fold change /veh SNX32 (11753110_a_at) / RFU CDHR5 (11726645_a_at) / Fold change /veh CDHR5 (11726645_a_at) / RFU RCAN1 (11760418_a_at) / Fold change /veh RCAN1 (11760418_a_at) / RFU FAM167A (11723789_a_at) / Fold change /veh FAM167A (11723789_a_at) / RFU FAM26E (11764081_at) / Fold change /veh FAM26E (11764081_at) / RFU ISYNA1 (11749810_s_at) / Fold change /veh ISYNA1 (11749810_s_at) / RFU ACY1 (11761880_at) / Fold change /veh ACY1 (11761880_at) / RFU 11764098_at / Fold change /veh 11764098_at / RFU SAMD14 (11745864_x_at) / Fold change /veh SAMD14 (11745864_x_at) / RFU NPB (11741838_a_at) / Fold change /veh NPB (11741838_a_at) / RFU TMPRSS6 (11731388_a_at) / Fold change /veh TMPRSS6 (11731388_a_at) / RFU KRTAP10-2 (11738614_at) / Fold change /veh KRTAP10-2 (11738614_at) / RFU ARHGAP8 /// PRR5-ARHGAP8 (11727945_x_at) / Fold change /veh ARHGAP8 /// PRR5-ARHGAP8 (11727945_x_at) / RFU KRTAP5-7 /// NADSYN1 (11734609_at) / Fold change /veh KRTAP5-7 /// NADSYN1 (11734609_at) / RFU RASL12 (11751679_a_at) / Fold change /veh RASL12 (11751679_a_at) / RFU CDKN2B (11736163_a_at) / Fold change /veh CDKN2B (11736163_a_at) / RFU PRF1 (11729649_at) / Fold change /veh PRF1 (11729649_at) / RFU, ZNF638 /// ZNF638-IT1 / Fold change vs veh, ZNF638 /// ZNF638-IT1 / RFU, PANK3 / Fold change vs veh, PANK3 / RFU, SH3YL1 / Fold change vs veh, SH3YL1 / RFU, ZEB2 / Fold change vs veh, ZEB2 / RFU, NRIP1 / Fold change vs veh, NRIP1 / RFU, PTTG1IP / Fold change vs veh, PTTG1IP / RFU, CAPN2 / Fold change vs veh, CAPN2 / RFU, MED14 / Fold change vs veh, MED14 / RFU, SNORA58 / Fold change vs veh, SNORA58 / RFU, C1orf63 / Fold change vs veh, C1orf63 / RFU, LRRFIP1 / Fold change vs veh, LRRFIP1 / RFU, NDUFAF7 / Fold change vs veh, NDUFAF7 / RFU, SLC12A2 / Fold change vs veh, SLC12A2 / RFU, IBTK / Fold change vs veh, IBTK / RFU, ESF1 / Fold change vs veh, ESF1 / Fold change vs veh, TMEM50B / RFU, TAOK1 / Fold change vs veh, TAOK1 / RFU, ACBD3 / Fold change vs veh, ACBD3 / RFU, TMA16 / Fold change vs veh, TMA16 / RFU, RWDD3 / Fold change vs veh, RWDD3 / RFU, BCAT1 / Fold change vs veh, BCAT1 / RFU, EDEM3 / Fold change vs veh, EDEM3 / RFU, TMEM33 / Fold change vs veh, TMEM33 / RFU, WDR75 / Fold change vs veh, WDR75 / RFU, AHCTF1 / Fold change vs veh, AHCTF1 / RFU, TFRC / Fold change vs veh, TFRC / RFU, ZDHHC17 / Fold change vs veh, ZDHHC17 / RFU, NOM1 / Fold change vs veh, NOM1 / RFU, ARL8B / Fold change vs veh, ARL8B / RFU, ZBTB11 / Fold change vs veh, ZBTB11 / RFU, TAMM41 / Fold change vs veh, TAMM41 / RFU, KIAA1704 /// LOC100996395 / Fold change vs veh, KIAA1704 /// LOC100996395 / RFU, ING1 / Fold change vs veh, ING1 / RFU, TRMT61B / Fold change vs veh, TRMT61B / RFU, FUBP3 / Fold change vs veh, FUBP3 / RFU, TP53 / Fold change vs veh, TP53 / RFU, TNKS2 / Fold change vs veh, TNKS2 / RFU, ZFP14 / Fold change vs veh, ZFP14 / RFU, ACTR2 / Fold change vs veh, ACTR2 / RFU, PPP3R1 / Fold change vs veh, PPP3R1 / RFU, PIK3R1 / Fold change vs veh, PIK3R1 / RFU, HNRNPA1 / Fold change vs veh, HNRNPA1 / RFU, RNF170 / Fold change vs veh, RNF170 / RFU, ZNF28 / Fold change vs veh, ZNF28 / RFU, RNGTT / Fold change vs veh, RNGTT / RFU, OGT / Fold change vs veh, OGT / RFU, BRD1 / Fold change vs veh, BRD1 / RFU, MARS / Fold change vs veh, MARS / RFU, ZNF655 / Fold change vs veh, ZNF655 / RFU, FAHD1 / Fold change vs veh, FAHD1 / RFU, BDP1 / Fold change vs veh, BDP1 / RFU, LRRCC1 / Fold change vs veh, LRRCC1 / RFU, ARID1A / Fold change vs veh, ARID1A / RFU, ZNF146 / Fold change vs veh, ZNF146 / RFU, ZNF330 / Fold change vs veh, ZNF330 / RFU, GPN3 / Fold change vs veh, GPN3 / RFU, C9orf123 / Fold change vs veh, C9orf123 / RFU, N4BP2L2 / Fold change vs veh, N4BP2L2 / RFU, ARFIP1 / Fold change vs veh, ARFIP1 / RFU, FAM179B / Fold change vs veh, FAM179B / RFU, BCL10 / Fold change vs veh, BCL10 / RFU, UHRF1BP1L / Fold change vs veh, UHRF1BP1L / RFU, BET1 / Fold change vs veh, BET1 / RFU, CNOT2 / Fold change vs veh, CNOT2 / RFU, ZNF268 / Fold change vs veh, ZNF268 / Fold change vs veh, ZNF507 / RFU, DGCR2 / Fold change vs veh, DGCR2 / RFU, WDSUB1 / Fold change vs veh, WDSUB1 / Fold change vs veh, HSP90B1 /// MIR3652 / RFU, ADSS / Fold change vs veh, ADSS / RFU, GK / Fold change vs veh, GK / RFU, ZNF148 / Fold change vs veh, ZNF148 / RFU, TAF9 / Fold change vs veh, TAF9 / RFU, SLC1A5 / Fold change vs veh, SLC1A5 / RFU, SLMO2 / Fold change vs veh, SLMO2 / RFU, ABCC4 / Fold change vs veh, ABCC4 / RFU, LOC101060439 /// RAP1B / Fold change vs veh, LOC101060439 /// RAP1B / RFU, RFX7 / Fold change vs veh, RFX7 / RFU, GTPBP10 / Fold change vs veh, GTPBP10 / RFU, CNEP1R1 / Fold change vs veh, CNEP1R1 / RFU, BIVM-ERCC5 /// ERCC5 / Fold change vs veh, BIVM-ERCC5 /// ERCC5 / RFU, ILF3 / Fold change vs veh, ILF3 / RFU 11762660_at / Fold change /veh 11762660_at / RFU VCAN (11757783_s_at) / Fold change /veh VCAN (11757783_s_at) / RFU DDX43 (11728927_at) / Fold change /veh DDX43 (11728927_at) / RFU KRT8 (11758188_x_at) / Fold change /veh KRT8 (11758188_x_at) / RFU NKD1 (11759106_at) / Fold change /veh NKD1 (11759106_at) / RFU SRD5A1 (11742802_a_at) / Fold change /veh SRD5A1 (11742802_a_at) / RFU TPSAB1 /// TPSB2 (11721975_s_at) / Fold change /veh TPSAB1 /// TPSB2 (11721975_s_at) / RFU GSTM3 (11746129_a_at) / Fold change /veh GSTM3 (11746129_a_at) / RFU IL23R (11737362_x_at) / Fold change /veh IL23R (11737362_x_at) / RFU TMEM51 (11727254_a_at) / Fold change /veh TMEM51 (11727254_a_at) / RFU PIWIL2 (11732686_x_at) / Fold change /veh PIWIL2 (11732686_x_at) / RFU ORM1 (11744905_x_at) / Fold change /veh ORM1 (11744905_x_at) / RFU CCDC152 (11743942_at) / Fold change /veh CCDC152 (11743942_at) / RFU ECM1 (11717891_a_at) / Fold change /veh ECM1 (11717891_a_at) / RFU IL23R (11748794_a_at) / Fold change /veh IL23R (11748794_a_at) / RFU TNFAIP8L3 (11732012_x_at) / Fold change /veh TNFAIP8L3 (11732012_x_at) / RFU MBOAT4 (11741988_at) / Fold change /veh MBOAT4 (11741988_at) / RFU 11764193_at / Fold change /veh 11764193_at / RFU TMEM53 (11763286_at) / Fold change /veh TMEM53 (11763286_at) / RFU MAGEB2 (11727129_at) / Fold change /veh MAGEB2 (11727129_at) / RFU TMEM200A (11744735_a_at) / Fold change /veh TMEM200A (11744735_a_at) / RFU CCDC152 (11751479_a_at) / Fold change /veh CCDC152 (11751479_a_at) / RFU FAM211A (11726209_a_at) / Fold change /veh FAM211A (11726209_a_at) / RFU RGS16 (11746705_a_at) / Fold change /veh RGS16 (11746705_a_at) / RFU VCAN (11755009_s_at) / Fold change /veh VCAN (11755009_s_at) / RFU RHOB (11743442_s_at) / Fold change /veh RHOB (11743442_s_at) / RFU RGS16 (11720943_a_at) / Fold change /veh RGS16 (11720943_a_at) / RFU RGS16 (11720944_at) / Fold change /veh RGS16 (11720944_at) / RFU, VPS4B / Fold change vs veh, VPS4B / RFU, CREB1 / Fold change vs veh, CREB1 / RFU, DNAJC13 / Fold change vs veh, DNAJC13 / RFU, GNAQ / Fold change vs veh, GNAQ / RFU, CDK5R1 / Fold change vs veh, CDK5R1 / RFU, ZRANB3 / Fold change vs veh, ZRANB3 / RFU, CUL4A / Fold change vs veh, CUL4A / RFU, CCNY / Fold change vs veh, CCNY / RFU, UFL1 / Fold change vs veh, UFL1 / RFU, COG3 / Fold change vs veh, COG3 / RFU, DIAPH2 / Fold change vs veh, DIAPH2 / RFU, SKA2 / Fold change vs veh, SKA2 / RFU, AFF3 / Fold change vs veh, AFF3 / RFU, LMF1 / Fold change vs veh, LMF1 / RFU, IPO11 / Fold change vs veh, IPO11 / RFU, DFFB / Fold change vs veh, DFFB / RFU, FOXP1 / Fold change vs veh, FOXP1 / RFU, CARD8 / Fold change vs veh, CARD8 / RFU, STRN3 / Fold change vs veh, STRN3 / RFU, ADK / Fold change vs veh, ADK / RFU, RASSF2 / Fold change vs veh, RASSF2 / RFU, WIPF1 / Fold change vs veh, WIPF1 / RFU, LARP1B / Fold change vs veh, LARP1B / RFU, RASA1 / Fold change vs veh, RASA1 / RFU, RB1 / Fold change vs veh, RB1 / RFU, PPFIA1 / Fold change vs veh, PPFIA1 / RFU, MAT2A / Fold change vs veh, MAT2A / RFU, CCT5 / Fold change vs veh, CCT5 / RFU, WDR92 / Fold change vs veh, WDR92 / RFU, CUX1 / Fold change vs veh, CUX1 / RFU, TTC7A / Fold change vs veh, TTC7A / RFU, TMEM135 / Fold change vs veh, TMEM135 / RFU, DEPTOR / Fold change vs veh, DEPTOR / RFU, CPM / Fold change vs veh, CPM / RFU, DNAJB6 / Fold change vs veh, DNAJB6 / RFU, CACNA2D3 / Fold change vs veh, CACNA2D3 / RFU, DTX4 / Fold change vs veh, DTX4 / RFU, TFCP2 / Fold change vs veh, TFCP2 / RFU, GMCL1 /// GMCL1P1 / Fold change vs veh, GMCL1 /// GMCL1P1 / RFU, AEBP2 / Fold change vs veh, AEBP2 / RFU, SNHG1 /// SNORD22 /// SNORD25 /// SNORD26 /// SNORD27 /// SNORD28 /// SNORD29 /// SNORD31 / Fold change vs veh, SNHG1 /// SNORD22 /// SNORD25 /// SNORD26 /// SNORD27 /// SNORD28 /// SNORD29 /// SNORD31 / Fold change (Aza/veh), C12orf56 (ProbeSet 11735607_a_at) / Fold change (ACY-1035/veh), C12orf56 (ProbeSet 11735607_a_at) / Fold change (Aza/veh), FGFR1OP (ProbeSet 11751329_s_at) / Fold change (ACY-1035/veh), FGFR1OP (ProbeSet 11751329_s_at) / Fold change (Aza/veh), VPS36 (ProbeSet 11739960_a_at) / Fold change (ACY-1035/veh), VPS36 (ProbeSet 11739960_a_at) / RFU SYPL1 (11715823_x_at) / Fold change /veh SYPL1 (11715823_x_at) / RFU IGFBP7 (11715501_s_at) / Fold change /veh IGFBP7 (11715501_s_at) / RFU REEP3 (11722064_at) / Fold change /veh REEP3 (11722064_at) / RFU IGLL1 (11728026_x_at) / Fold change /veh IGLL1 (11728026_x_at): dose or concentration left out as unconfirmed
Details: ProbeSet 11734782_x_at; LIST D

## Nc1ccc(-c2cccs2)cc1NC(=O)c1ccc2c(c1)cc(C1CC1)n2CCN1CCOCC1 [ACY-1035]
  RFU, WDR92: 63.28 RFU
